Test results published in patent US8278358B2, “Lipoic acid derivatives” (Omnica GmbH, priority 2006, dated 2012).

How the values were obtained:
[1] = Reducing power assay (reduction of Iron-III to Iron-II); type: biochemical
Description: The assay is based on the reduction of Iron-III to Iron-II. Results are expressed as % reduction when compared to the control which reduced all Iron-III at a concentration of 5 mg/mL.

[2] = Inhibition of the autooxidation of linoleic acid; type: biochemical; settings: 50° C., up to 72 hours
Description: As a positive control (full inhibition) 10 mM butyl-hydroxytoluene (BHT)/L was introduced. Each sample was prepared in 3 replicates. […] Each sample was prepared in 3 replicates. Samples were incubated with light protection at 50° C.

CaCo-2 cells = assay: CACO-2 absorption test (Free and Total LA/DHLA in cells); type: in vitro ADME
[3] = Protection of lutein esters, milling/mixing method, 60° C. for 4 hours; type: physicochemical; settings: mix method
Description: 300 mg lutein esters and 30 mg α-Tocopherol were added to a mortar, completely milled and maintained at a temperature of 60° C. for 4 hours. The lutein content was measured with the UV-Visible spectrophotometric method as described above. […] The lutein content was measured with a UV-Visible spectrophotometer as described above. 300 mg lutein esters and a predetermined amount of lipoic acid were placed in a mortar, milled and then subjected to an elevated temperature of 60° C. for 4 hours. The lutein content was determined by the UV-Visible spectrophotometric method described above.

[4] = Stability in CaCo-2 incubation medium (Free and Total LA/DHLA in medium); type: in vitro ADME; settings: for Total LA in medium (after NaBH4 reduction) / Free LA in medium: 1 mg LA/ml or 1.46 mg LAORN/ml medium
Description: For stability investigations, the incubation medium was incubated at 37° C. for 1 hour. Thereafter, the medium was centrifuged and used for further analysis.

Row | Total LA in cells (after NaBH4 reduction) (CaCo-2 cells; CaCo-2 cells incubated 30 min) | Total LA in cells (after NaBH4 reduction) (CaCo-2 cells; CaCo-2 cells incubated 60 min) | Residual Ratio/% of lutein esters ([3]; 300 mg lutein esters, Dosage of LA 3 mg, Content of LA 1.0%) [%] | Residual Ratio/% of lutein esters ([3]; Dosage of LA 15 mg, Content of LA 4.8%) [%] | Residual Ratio/% of lutein esters ([3]; Dosage of LA 30 mg, Content of LA 9.1%) [%] | Residual Ratio/% of lutein esters ([3]; Dosage of LA 60 mg, Content of LA 16.7%) [%] | Residual Ratio/% of lutein esters ([3]; Dosage of LA 150 mg, Content of LA 33.3%) [%] | Residual Ratio/% of lutein esters ([3]; Dosage of LA 300 mg, Content of LA 50.0%) [%] | Total LA in medium (after NaBH4 reduction) ([4]; 60 min) | Free LA in medium ([4]; 60 min, 37° C.) [mg/mL] | Free LA in medium ([4]; Initial) [mg/mL] | Total LA in medium (after NaBH4 reduction) ([4]; Initial) | stability under the test assay conditions ([4]; incubation medium, 37° C., 1 hour, recovery after reduction to DHLA) | SMILES | % Reduction compared to Control ([1]; Conc. 1 mg/mL) [%] | % Reduction compared to Control ([1]; Conc. 5 mg/mL) [%] | % Reduction compared to Control ([1]; Conc. 10 mg/mL) [%] | protection against autooxidation of linoleic acid ([2]; FIG. 7: 5 mM LA/L, 5 mM ORN/L, 5 mM LA/L + 5 mM ORN/L, 10 mM LAORN/L) | protection against autooxidation of linoleic acid ([2]; FIG. 8: 50 mM LA/L, 50 mM ORN/L, 50 mM LA/L + 50 mM ORN/L, 100 mM LAORN/L)
1 |  |  |  |  |  |  |  |  |  |  |  |  |  | [BH4-].[Na+] [Control, NaBH4] | 22.7 | 100.0 | 100.0 |  | 
2 | bld | bld | 42.7 | 46.5 | 79.5 | 80.1 | 79.4 | 82.4 | bld | 0.74 | 0.89 | bld | stable | O=C(O)CCCCC1CCSS1 (stereo not drawn) [LA, 1,2-dithiolane-3-pentanoic acid] | 7.2 | 22.2 | 24.7 | full protection | full protection
